Data: patent publication US20180148418A1, “AMIDO-SUBSTITUTED CYCLOHEXANE DERIVATIVES” (Bayer Pharma Aktiengesellschaft, priority 2015, published 2018)

Legend:
[1] = system: HEK293 cells cotransfected with the FOP control vector; experiment: HEK293 FOP assay (control reporter with non-functional TCF elements); type: cell-based; conditions: Homo sapiens, 16 hours
Outline: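 Stable HEK293 line carrying FOP control reporter (randomized non-functional TCF sites, with pcDNA3), Geneticin-selected, plated 24 h before assay. Stimulated with recombinant human Wnt-3a (2500-5 ng/ml) and compounds 50 μM–15 nM (3.16-fold steps) in CAFTY buffer pH 7.4 with 2 mM Ca2+, 0.01% BSA, run parallel to TOP line.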

TNKS1 = molecular target: T1, TNKS1 (Homo sapiens, UniProt O95271); experiment: TNKS1 Assay B (auto-parsylation, [3H]-NAD+ SPA); type: biochemical; conditions: 6 nM TNKS1, auto-parsylation, over night at room temperature
T1 construct: purchased BPS Bioscience, San Diego, USA 80579 (TNKS1 Histone Ribosylation Assay Kit)
T1 sequence (O95271 1-1327): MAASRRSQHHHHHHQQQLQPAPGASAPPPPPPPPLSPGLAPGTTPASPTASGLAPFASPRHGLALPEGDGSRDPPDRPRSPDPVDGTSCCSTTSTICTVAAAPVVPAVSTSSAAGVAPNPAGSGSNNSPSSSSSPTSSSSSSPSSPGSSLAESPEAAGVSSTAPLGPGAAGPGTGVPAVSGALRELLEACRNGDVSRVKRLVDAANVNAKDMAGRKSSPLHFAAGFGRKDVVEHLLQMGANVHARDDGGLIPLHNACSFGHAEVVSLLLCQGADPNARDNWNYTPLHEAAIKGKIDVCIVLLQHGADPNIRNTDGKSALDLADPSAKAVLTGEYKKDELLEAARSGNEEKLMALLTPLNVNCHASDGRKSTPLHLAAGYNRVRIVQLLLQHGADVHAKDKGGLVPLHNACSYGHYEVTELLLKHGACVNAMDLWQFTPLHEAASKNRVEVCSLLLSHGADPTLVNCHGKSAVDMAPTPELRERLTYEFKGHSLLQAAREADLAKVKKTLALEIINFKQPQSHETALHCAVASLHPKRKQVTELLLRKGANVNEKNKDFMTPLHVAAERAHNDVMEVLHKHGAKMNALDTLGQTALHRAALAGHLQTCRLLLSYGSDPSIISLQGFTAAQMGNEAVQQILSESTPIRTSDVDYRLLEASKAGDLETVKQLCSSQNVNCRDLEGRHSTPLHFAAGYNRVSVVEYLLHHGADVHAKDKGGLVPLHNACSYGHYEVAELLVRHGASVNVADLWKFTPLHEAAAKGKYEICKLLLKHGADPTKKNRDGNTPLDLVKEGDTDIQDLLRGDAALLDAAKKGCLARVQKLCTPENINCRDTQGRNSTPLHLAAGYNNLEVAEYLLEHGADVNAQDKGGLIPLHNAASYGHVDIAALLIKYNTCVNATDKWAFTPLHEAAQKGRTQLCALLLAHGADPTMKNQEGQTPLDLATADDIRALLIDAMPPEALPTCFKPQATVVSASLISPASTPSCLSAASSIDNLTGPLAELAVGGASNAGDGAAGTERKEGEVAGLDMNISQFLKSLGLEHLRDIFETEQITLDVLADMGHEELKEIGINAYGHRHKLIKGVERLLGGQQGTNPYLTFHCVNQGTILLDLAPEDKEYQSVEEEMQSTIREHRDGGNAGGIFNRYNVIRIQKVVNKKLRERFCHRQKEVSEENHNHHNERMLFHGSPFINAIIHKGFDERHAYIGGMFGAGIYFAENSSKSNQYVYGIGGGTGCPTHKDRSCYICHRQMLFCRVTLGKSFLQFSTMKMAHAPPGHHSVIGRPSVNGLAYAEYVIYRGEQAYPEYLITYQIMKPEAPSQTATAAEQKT
Method: The potency of selected compounds according to the invention was assessed applying a modified in vitro inhibition assay. Here, the TNKS1 catalyzed NAD^+-dependent ribosylation of the enzyme itself (auto-parsylation) was detected using [^3H]-NAD^+ as substrate and applying the scintillation proximity assay (SPA) method to detect tritium-labeled, parsylated TNKS1. The intensity of the readout signal is proportional to the incorporated [^3H]-NAD^+. Inhibition of TNKS1 leads to a decreased incorporation of [^3H]-NAD^+ and consequently to a lower readout signal intensity. The concentration of a test compound which inhibits the enzyme activity by 50% (corresponds to half of the normed readout signal intensity) is reported as IC50.
Protocol Auto-Parsylation Assay
The assay was conducted in a 96 well MTP format with the identical TNKS1 enzyme sample and NAD^+ sample as in the histone ribosylation assay with the following modifications: TNKS1 enzyme sample was diluted with a modified assay buffer (50 mM MES pH 7.0, 1 mM DTT, 0.01% Triton X-100) to a final concentration of 6 nM TNKS1 and 10×NAD^+ solution was diluted with the modified assay buffer (s. above) to a final 0.445×NAD^+ solution doped with 100 Bq/μl [^3H]-NAD^+[Catalog #NET443H050UC, Perkin Elmer, Waltham, Mass., USA]. Substrate solution (10 μl) was incubated with different test compound concentrations (2.5 ul in 10% DMSO in modified assay buffer) or control (2.5 ul 10% DMSO in modified assay buffer only) and enzyme (10 μl) over night at room temperature. Incorporated tritium was measured after addition of 50 μl SPA beads (1 mg/ml) [Catalog #RPNQ0095 20 mg/ml, Perkin Elmer, Waltham, Mass., USA; diluted 1:10 with Dulbecco's phosphate buffered saline, PBS Catalog #D8537, Sigma-Aldrich, Steinheim, Germany] and detection of the photon emission with a beta count plate reader [Wallac MicroBeta®, Perkin Elmer, Waltham, Mass., USA].

[2] = system: wildtype Wnt signaling cascade; experiment: HEK293 TOP assay (Super TopFlash luciferase reporter, Wnt-3a stimulated); type: cell-based; conditions: Homo sapiens, HEK293, 16 h, HEK293 TOP reporter cells, Wnt3a at EC50, 16 hours
Outline: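 HEK293 cells stably carrying Super TopFlash (TOP) run in parallel with FOP cells, 10000/well plated 24 h ahead, stimulated with recombinant human Wnt-3a. Compounds tested 50 μM to 15 nM in 3.16-fold steps in CAFTY buffer pH 7.4 with 2 mM Ca^2+ and 0.01% BSA; luciferase read-out.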

TNKS2 = molecular target: T2, TNKS2 (Homo sapiens, UniProt Q9H2K2); experiment: TNKS2 Assay B (auto-parsylation, [3H]-NAD+ SPA); type: biochemical; conditions: 6 nM TNKS2, auto-parsylation, over night at room temperature
T2 construct: purchased BPS Bioscience, San Diego, USA 80572 (TNKS2 Histone Ribosylation Assay Kit)
T2 sequence (Q9H2K2 1-1166): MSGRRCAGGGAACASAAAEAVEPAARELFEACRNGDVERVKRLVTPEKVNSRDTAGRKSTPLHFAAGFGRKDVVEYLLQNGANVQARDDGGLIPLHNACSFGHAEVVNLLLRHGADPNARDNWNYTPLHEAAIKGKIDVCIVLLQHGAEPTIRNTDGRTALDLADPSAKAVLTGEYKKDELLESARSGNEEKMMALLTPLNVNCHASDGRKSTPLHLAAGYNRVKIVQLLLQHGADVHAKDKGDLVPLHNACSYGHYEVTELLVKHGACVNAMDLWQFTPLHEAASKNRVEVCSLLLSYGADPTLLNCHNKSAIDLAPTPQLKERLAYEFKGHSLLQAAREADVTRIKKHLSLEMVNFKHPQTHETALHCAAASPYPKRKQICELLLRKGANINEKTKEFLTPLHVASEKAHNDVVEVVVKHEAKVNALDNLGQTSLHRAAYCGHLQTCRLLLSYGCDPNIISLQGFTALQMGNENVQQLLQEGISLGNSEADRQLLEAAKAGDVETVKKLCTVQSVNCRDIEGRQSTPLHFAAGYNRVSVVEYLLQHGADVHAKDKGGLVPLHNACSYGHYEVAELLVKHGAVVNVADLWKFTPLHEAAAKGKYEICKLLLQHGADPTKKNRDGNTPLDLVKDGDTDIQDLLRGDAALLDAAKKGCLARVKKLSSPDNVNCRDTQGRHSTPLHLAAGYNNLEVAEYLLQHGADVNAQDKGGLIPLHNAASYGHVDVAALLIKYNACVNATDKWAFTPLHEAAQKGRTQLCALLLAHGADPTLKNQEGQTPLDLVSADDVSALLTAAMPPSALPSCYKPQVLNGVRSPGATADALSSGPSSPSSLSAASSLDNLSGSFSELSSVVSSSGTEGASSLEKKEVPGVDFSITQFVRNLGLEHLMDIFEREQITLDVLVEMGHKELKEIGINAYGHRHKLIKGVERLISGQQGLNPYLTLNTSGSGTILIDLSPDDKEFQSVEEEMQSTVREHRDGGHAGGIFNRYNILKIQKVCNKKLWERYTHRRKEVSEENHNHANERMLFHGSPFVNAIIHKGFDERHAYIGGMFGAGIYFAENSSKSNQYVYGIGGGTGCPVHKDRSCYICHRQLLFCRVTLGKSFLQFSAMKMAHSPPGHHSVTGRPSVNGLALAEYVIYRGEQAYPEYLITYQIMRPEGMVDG

Row | Structure (SMILES) | IC50 [1] | IC50 (TNKS1) | IC50 [2] | IC50 (TNKS2)
1 | O=C(N[C@H]1CC[C@H](C(=O)Nc2cc(N3CCOCC3)ccc2Cl)CC1)c1[nH]cnc1C(=O)N1CC(F)(F)C1 [Example 92, N-(trans-4-{[2-chloro-5-(morpholin-4-yl)phenyl]carbamoyl}cyclohexyl)-4-[(3,3-difluoroazetidin-1-yl)carbonyl]-1H-imidazole-5-carboxamide] | 21000 nM | > 10000 nM | 3200 nM | –
2 | CCc1cc(CC)n2ncc(C(=O)N[C@H]3CC[C@@]4(CCN(c5ccc(F)cc5Cl)C4=O)CC3)c2n1 [Example 348, N-[(trans)-2-(2-chloro-4-fluorophenyl)-1-oxo-2-azaspiro[4.5]dec-8-yl]-5,7-diethyl pyrazolo[1,5-a]pyrimidine-3-carboxamide] | ≥ 50000 nM | – | 1.8 nM | 9.2 nM
3 | O=C(N[C@H]1CC[C@@]2(CCN(c3ccc(F)cc3Cl)C2=O)CC1)c1cnc2c(NCCC(F)(F)F)cc(Cl)nn12 [Example 349, 6-chloro-N-[(trans)-2-(2-chloro-4-fluorophenyl)-1-oxo-2-azaspiro[4.5]dec-8-yl]-8-[(3,3,3-trifluoropropyl)amino]imidazo[1,2-b]pyridazine-3-carboxamide] | ≥ 50000 nM | – | 14 nM | 43 nM
4 | O=C(N[C@H]1CC[C@@]2(CCN(c3ccc(F)cc3Cl)C2=O)CC1)c1c[nH]c2nccnc12 [Example 350, N-[(trans)-2-(2-chloro-4-fluorophenyl)-1-oxo-2-azaspiro[4.5]dec-8-yl]-5H-pyrrolo[2,3-b]pyrazine-7-carboxamide] | ≥ 50000 nM | – | 1.2 nM | 20 nM
5 | COc1ccc(Cl)c(N2CC[C@]3(CC[C@@H](NC(=O)c4cnn5cccnc45)CC3)C2=O)c1 [Example 353, N-[(trans)-2-(2-chloro-5-methoxyphenyl)-1-oxo-2-azaspiro[4.5]dec-8-yl]pyrazolo[1,5-a]pyrimidine-3-carboxamide] | 28000 nM | – | 7.2 nM | 27 nM
6 | O=C(N[C@H]1CC[C@@]2(CCN(c3ccc(OC(F)(F)F)cc3Cl)C2=O)CC1)c1cnn2cccnc12 [Example 354, N-{(trans)-2-[2-chloro-4-(trifluoromethoxy)phenyl]-1-oxo-2-azaspiro[4.5]dec-8-yl}pyrazolo[1,5-a]pyrimidine-3-carboxamide] | 19000 nM | – | 15 nM | 26 nM
7 | O=C(N[C@H]1CC[C@@]2(CCN(c3cccs3)C2=O)CC1)c1cnn2cccnc12 [Example 361, N-[(trans)-1-oxo-2-(thiophen-2-yl)-2-azaspiro[4.5]dec-8-yl]pyrazolo[1,5-a]pyrimidine-3-carboxamide] | ≥ 50000 nM | – | 560 nM | 3900 nM
8 | COC(=O)c1ccc(N2CC[C@]3(CC[C@@H](NC(=O)c4cnn5cccnc45)CC3)C2=O)c(Cl)c1 [Example 362, methyl 3-chloro-4-{(trans)-1-oxo-8-[(pyrazolo[1,5-a]pyrimidin-3-ylcarbonyl)amino]-2-azaspiro[4.5]dec-2-yl}benzoate] | 31000 nM | – | 3.9 nM | 33 nM
